Patent publication US9567280B2, “Preparation of hop acids and their derivatives” (MillerCoors LLC, priority 2010, dated 2017)
“Also recorded” adds a separate entry of the source.

Experiments:
[1] = Bitterness perception in aqueous 5% v/v ethanol/H2O solution; conditions: 6 ppm in 5% ethanol/H2O
Excerpt: An aqueous 5% v/v ethanol/H2O solution was spiked with 6 ppm of THICO I, II, and III.

[2] = Sensory evaluation of unhopped lagers spiked with THICO
Excerpt: Two sets of unhopped lagers (A and B) were spiked with 6 ppm and 13 ppm of THICO I, II, and III, respectively.
The other two beers were noted as being similar with initial intense bitterness that diminished slowly with slight lingering bitterness.

Pediococcus damnosus [3] = assay: Minimum inhibitory concentration (MIC) in modified BMB without Tween 80 culture medium; format: cell-based; set-up: key to Growth of beer spoilage bacteria: + = Growth of beer spoilage bacteria; − = No growth of beer spoilage bacteria; +/− = Partial inhibition of bacterial growth; conditions: for Growth of beer spoilage bacteria: hop acids in 70% ethanol; for Minimum inhibitory concentration (MIC): concentration at which no bacteria were detected
Method: (§1) The antimicrobial effect of three molecules was tested on Pediococcus damnosus and Lactobacillus brevis with two methods (MIC and BZI). MIC was determined based on the concentration at which no bacteria were detected in the modified BMB without Tween 80 culture medium. […] The average diameters of the zones of bacterial inhibition in Universal Beer Agar (UBA) produced by the filter paper disks immersed in 4000 ppm of THICO I, II, and III in 70% ethanol/water are shown in Table 5. Zone diameters increased with the same rates for three molecules on two different organisms (Pediococcus damnosus and Lactobacillus brevis) indicate that all molecules have the same antibacterial effectiveness. No enantioselective antibacterial interactions between THICO I, II, III and the microbial occur.

Lactobacillus brevis = assay: Bacterial zone of inhibition (BZI), filter paper disks on Universal Beer Agar; format: cell-based; conditions: disks immersed in 4000 ppm in 70% ethanol/water
Method: as §1

Pediococcus damnosus [4] = assay: as above; format: cell-based; conditions: disks immersed in 4000 ppm in 70% ethanol/water
Method: as §1

[5] = set A: unhopped lager spiked with 6 ppm

Substance | Bitterness intensity (rank order) [1] | Sensory evaluation of bitterness in beer [2, 5] | Growth of beer spoilage bacteria (Pediococcus damnosus [3]; 0.5 ppm) | Growth of beer spoilage bacteria (Pediococcus damnosus [3]; 1 ppm) | Growth of beer spoilage bacteria (Pediococcus damnosus [3]; 2 ppm) | Growth of beer spoilage bacteria (Pediococcus damnosus [3]; 4 ppm) | Growth of beer spoilage bacteria (Pediococcus damnosus [3]; 8 ppm) | Growth of beer spoilage bacteria (Pediococcus damnosus [3]; 16 ppm) | Growth of beer spoilage bacteria (Pediococcus damnosus [3]; 32 ppm) | Growth of beer spoilage bacteria (Pediococcus damnosus [3]; 64 ppm) | Growth of beer spoilage bacteria (Pediococcus damnosus [3]; 128 ppm) | Minimum inhibitory concentration (MIC) (Pediococcus damnosus [3]) [ppm] | Diameter of Bacterial Zone of Inhibition (Lactobacillus brevis) [mm] | Diameter of Bacterial Zone of Inhibition (Pediococcus damnosus [4]) [mm] | Bitterness (bitter perception) [1] | Bitterness (bitter perception) ([1]; listed as (±)-THICO III) | Bitterness intensity (rank order) ([1]; listed as (±)-THICO III) | Sensory evaluation of bitterness in beer ([2]; set A: unhopped lager spiked with 6 ppm, listed as THCO II) | Sensory evaluation of bitterness in beer ([2]; set B: unhopped lager spiked with 13 ppm)
(+)-cis- and (−)-trans-THICO [THICO I] | THICO II>(±)-THICO III>THICO I | a little more initial bitterness | + | + | + | + | + | +/− | − | − | − | 16 | 26 | 11.5 |  |  |  |  | 
(±)-cis- and (±)-trans-tetrahydroisocohumulones [THICO III] | II>III>I | diminished quickly |  |  |  |  |  |  |  |  |  |  | 22.5 | 12 | smooth and milder than the others; also recorded: smooth, milder, clean | milder and smooth bitterness than THICO I; also recorded: smooth, clean and milder than I and II | THICO II>(±)-THICO III>THICO I |  | 
(−)-cis- and (+)-trans-tetrahydro isocohumulone [THICO II] | THICO II>(±)-THICO III>THICO I | the most bitterness and longest lingering | + | + | + | + | + | +/− | − | − | − | 16 | 26.5 | 12 |  |  |  | the strongest initial bitterness and lingered the longest | strong initial bitterness that increased (described as late bitterness) and also lingered
